Laboratory results: patent US20250057985A1, “REEXPRESSION OF HNF4A TO ALLEVIATE CANCER-ASSOCIATED CACHEXIA” (YEDA RESEARCH AND DEVELOPMENT CO. LTD., priority 2022, published 2025)
Blank lines part the entries; values can stand above or below the molecule they belong to.

Columns and labels:
[1] = biological target: T1, STAT3 (Mus musculus, UniProt P42227); experiment: STAT3 inhibitor in IL-6-treated primary hepatocytes, OTC RT-PCR; type: cell-based; details: 10 μM inhibitor 30 min then IL-6 48 h
T1 construct: endogenous in cells; host or cells: primary mouse hepatocytes isolated by liver perfusion
T1 sequence (P42227 whole entry, the tested form may be a part): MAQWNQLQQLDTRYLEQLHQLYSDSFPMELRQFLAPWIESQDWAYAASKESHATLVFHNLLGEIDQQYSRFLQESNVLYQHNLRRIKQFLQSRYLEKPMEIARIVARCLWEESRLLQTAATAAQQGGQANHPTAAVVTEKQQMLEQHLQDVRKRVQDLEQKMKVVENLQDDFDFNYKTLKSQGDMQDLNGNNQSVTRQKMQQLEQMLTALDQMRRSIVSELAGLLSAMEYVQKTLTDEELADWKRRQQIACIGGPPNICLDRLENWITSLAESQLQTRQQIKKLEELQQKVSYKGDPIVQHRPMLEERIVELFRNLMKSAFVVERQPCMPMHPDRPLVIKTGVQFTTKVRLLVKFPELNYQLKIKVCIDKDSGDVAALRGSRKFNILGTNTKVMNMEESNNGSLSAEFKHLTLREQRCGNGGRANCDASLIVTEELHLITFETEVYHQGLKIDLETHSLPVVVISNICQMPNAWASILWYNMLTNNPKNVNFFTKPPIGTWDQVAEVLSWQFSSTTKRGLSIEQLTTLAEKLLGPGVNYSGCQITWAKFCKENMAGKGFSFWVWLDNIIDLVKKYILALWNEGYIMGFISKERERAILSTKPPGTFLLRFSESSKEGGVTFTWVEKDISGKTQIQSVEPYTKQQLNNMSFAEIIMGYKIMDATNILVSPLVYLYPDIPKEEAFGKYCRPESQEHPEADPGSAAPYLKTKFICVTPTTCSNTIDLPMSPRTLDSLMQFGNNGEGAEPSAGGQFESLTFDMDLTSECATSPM
Protocol: Primary hepatocytes culture: Following perfusion, 1×10^6 isolated hepatocytes were seeded in 3 ml Williams E+Glutamx-TM-1 in 6 well plate. Four hours after, the medium was aspirated, and the cells were washed with PBS and incubated with 2 ml Williams E+Glutamx-TM-1 overnight. Cells were treated with 10 μM of HJC0152 STAT3 inhibitor (Selleckchem #58561), for 30 minutes cells and then treated with 10 ng/ml recombinant mouse IL-6 (R&D #406-ML-005) for 48 h.
RNA processing and quantitative PCR: RNA was extracted from liver tissue by using QIAzol Lysis Reagent (according to QIAzol® Handbook) or by Direct-zol™ MiniPrep Plus Kit (Zymo Research ZR-R2070). For hepatocytes RNA sequencing, RNA was extracted from dissociated hepatocytes. Following liver perfusion as previously described, hepatocytes were resuspended in QIAzol and frozen in −80° C. RNA was extracted by using QIAzol Lysis Reagent. RNA from cultured primary hepatocytes was extracted by using RNeasy Mini Kit (QIAGENe #74104). To evaluate mtDNA copy number, total DNA was isolated using DNA purification kit (DNeasy Blood & Tissue Kits Qiagen #69504). cDNA was synthesized from […] RNA by using qScript cDNA Synthesis Kit (Quanta #95749). Detection on cDNAs was performed using Syber Green Fast mix Perfect CT (Quantabio #95073) with the required primers (qPCR primer list—Table 1)

[2] = test system: CD8+ splenocytes; details: ex-vivo, 1 mM ammonia, WT mice
Protocol: Activation of T cells from mice spleens: 10 weeks old WT female Balb/c mice were sacrificed and spleen harvested into cold-PBS on ice. Spleens were homogenized by syringe plunger through 70 uM strainer and washed with PBS. Following centrifugation at 1200 rpm for 5 min pellets were treated with RBC lysis buffer according to the manufacturer's instruction. Cells were resuspended in 2×10^6 cells/ml in splenocytes medium (complete RPMI medium supplemented with 50 μM β-mercaptoethanol, […] and Non-essential amino acids) supplemented with 6,000 IU/mL IL-2 (Chiron, rhIL2) and seeded in 24 well plates pre-coated with CD3 (BLG #100302). Following 72 h, cells were collected, centrifuged at 1200 rpm for 5 min, washed with splenocytes medium×2, and analyzed using CytoFLEX (Beckman Coulter) FACS analyzer.

[3] = test system: primary hepatocytes; experiment: IL-6 supplementation of primary hepatocytes, RT-PCR; type: cell-based, mouse
Protocol: Liver Perfusions and hepatocytes dissociation: Livers of anaesthetized mice were perfused, with specific adjustments. The vena cava was inserted with 27 G syringe, fixed on the perfusion line. 10 ml of pre-warmed to 42° C. PPML buffer followed by 25 ml of pre-warmed to 42′C PM buffer with Liberase (Roche, cat #05401127001) were perfused through the vena cava. Immediately at the beginning of the perfusion, the portal vein was cut. Following perfusion of 25 ml of PM buffer and Liberase solution, livers were harvested into a Petri dish with 10 ml of pre-warmed PM buffer and chopped by forceps. Dissociated liver cells were collected and filtered through a slanted 100 um cell strainer. Cells were spin down at 30 g for 3 min at 4° C. to get hepatocytes enriched pellet. Pellet was resuspended in […] cold PM buffer. To enrich live hepatocytes, 21.6 ml cold Percoll (G.E. Healthcare #17-0891-01) mixed with +2.4 ml DPBSX10+CaCl2)+MgCl2 was added to the cells. Cells were centrifuged at 600 rpm for 10 minutes at 4° C. Supernatant containing the dead cells was aspirated, and cells were resuspended in 25 ml of cold Williams E+Glutamx-TM-1 (Gibco, cat #32551, 1% penstrep, 1% FBS, 1% L-Glutamine). […]
RNA processing and quantitative PCR: RNA was extracted from liver tissue by using QIAzol Lysis Reagent (according to QIAzol® Handbook) or by Direct-zol™ MiniPrep Plus Kit (Zymo Research ZR-R2070). […]

OTC expression levels in the presence of IL-6 [1]: rescued | OTC expression levels in the presence of IL-6 ([1]; listed as HJCO152): restores
Molecule: NCCOc1ccc(Cl)cc1C(=O)Nc1ccc([N+](=O)[O-])cc1Cl [HJC0152]

Molecule: N [ammonia]
activation of T-cells splenocytes [2]: reduced | survival of T-cells splenocytes [2]: reduced

B1: IL-6: recombinant mouse IL-6 (R&D #406-ML-005) (protein, UniProt P08505 25-211, looked up)
Interleukin-6: FPTSQVRRGDFTEDTTPNRPVYTTSQVGGLITHVLWEIVEMRKELCNGNSDCMNNDDALAENNLKLPEIQRNDGCYQTGYNQEICLLKISSGLLEYHSYLEYMKNNLKDNKKDKARVLQRDTETLIHIFNQEVKDLHKIVLPTPISNALLTDKLESQKEWLRTKTIQFILKSLEEFLKVTLRSTRQT
RNA expression levels of OTC ([3]; 10 ng/ml recombinant mouse IL-6, 48 h): decreased | CCL2 RNA levels ([3]; IL-6 supplementation): increased
